Reference: the NIST ThermoML archive (doi:10.1016/j.fluid.2014.09.014)

Experiment: refractive index (other wavelength) (dimensionless); xn = mol fraction of the nth substance listed
Conditions: 308.15 K, 101 kPa, Liquid, Standard Abbe refractometry

CC(C)OC(C)C [diisopropyl ether] + CC(C)O
refractive index
Conditions | Wavelength=404.7 nm | Wavelength=435.8 nm | Wavelength=486.1 nm | Wavelength=546.1 nm | Wavelength=587.6 nm | Wavelength=589.3 nm | Wavelength=632.8 nm
x1 = 0.0277 | 1.38135 | 1.37835 | 1.37495 | 1.37214 | 1.37065 | 1.37059 | 1.36929
x1 = 0.0507 | 1.3813 | 1.3783 | 1.37488 | 1.37207 | 1.37059 | 1.37053 | 1.36924
x1 = 0.051 | 1.38124 | 1.37824 | 1.37483 | 1.37202 | 1.37053 | 1.37047 | 1.36917
x1 = 0.0717 | 1.38092 | 1.37792 | 1.37451 | 1.3717 | 1.37072 | 1.37014 | 1.36886
x1 = 0.1528 | 1.38023 | 1.37724 | 1.37384 | 1.371 | 1.36953 | 1.36947 | 1.3682
x1 = 0.1553 | 1.38023 | 1.37724 | 1.37384 | 1.371 | 1.36953 | 1.36947 | 1.3682
x1 = 0.1938 | 1.37994 | 1.37695 | 1.37356 | 1.37072 | 1.36925 | 1.36919 | 1.36792
x1 = 0.2029 | 1.3793 | 1.37665 | 1.37311 | 1.37028 | 1.3688 | 1.36875 | 1.36748
x1 = 0.245 | 1.37901 | 1.37603 | 1.37266 | 1.36984 | 1.36837 | 1.36832 | 1.36706
x1 = 0.297 | 1.37832 | 1.37533 | 1.37193 | 1.36911 | 1.36764 | 1.36759 | 1.36631
x1 = 0.2973 | 1.37852 | 1.37554 | 1.37215 | 1.36932 | 1.36785 | 1.3678 | 1.36653
x1 = 0.3068 | 1.37823 | 1.37525 | 1.3718 | 1.36857 | 1.36754 | 1.36751 | 1.36624
x1 = 0.398 | 1.37692 | 1.37394 | 1.37056 | 1.36775 | 1.36628 | 1.36623 | 1.36496
x1 = 0.4609 | 1.37625 | 1.37325 | 1.36987 | 1.36707 | 1.3656 | 1.36554 | 1.36427
x1 = 0.5434 | 1.37535 | 1.37238 | 1.36896 | 1.3662 | 1.36473 | 1.36467 | 1.36338
x1 = 0.6032 | 1.37466 | 1.3717 | 1.3683 | 1.3655 | 1.36404 | 1.36398 | 1.36271
x1 = 0.6371 | 1.37427 | 1.37131 | 1.36792 | 1.36515 | 1.36369 | 1.36363 | 1.36235
x1 = 0.701 | 1.37352 | 1.37059 | 1.36722 | 1.36441 | 1.36297 | 1.36292 | 1.36166
x1 = 0.754 | 1.37312 | 1.37017 | 1.36681 | 1.36401 | 1.36256 | 1.36251 | 1.36125
x1 = 0.791 | 1.37271 | 1.36974 | 1.36638 | 1.36358 | 1.36215 | 1.36209 | 1.36085
x1 = 0.8296 | 1.37234 | 1.36938 | 1.36604 | 1.36323 | 1.36178 | 1.36173 | 1.36048
x1 = 0.8864 | 1.37212 | 1.36915 | 1.3658 | 1.363 | 1.36156 | 1.36151 | –
x1 = 0.8903 | 1.37167 | 1.36871 | 1.36535 | 1.36256 | 1.36111 | 1.36106 | –
x1 = 0.9113 | 1.37142 | 1.36847 | 1.36511 | 1.36232 | 1.36088 | 1.36082 | –
x1 = 0.9547 | 1.37095 | 1.36796 | 1.36465 | 1.36187 | 1.36041 | 1.36036 | –
x1 = 0.973 | 1.37062 | 1.36766 | 1.36431 | 1.36152 | 1.36008 | 1.36002 | –
x1 = 0.9771 | 1.37048 | 1.36752 | 1.36417 | 1.36139 | 1.35994 | 1.35989 | –
x1 = 1 | 1.37035 | 1.36739 | 1.36407 | 1.36127 | 1.35975 | 1.35983 | –
